Experimental data published in a melting point compilation (Tetko et al.; mined from patent text by program, amines drawn as free bases though some values may be those of a salt).

For `c1ccc(C2(Cc3ccncc3)c3ccccc3-c3sccc32)cc1` (stereo unspecified), the melting point was 88 to 92 °C.
Compound `CP(C)(=O)C(O)C(N)=O` (stereo unspecified) has a melting point of 155 °C.
Work on `COc1ccc(Cn2c(=O)n(C3CCCCC3)c3cc(Cl)ccc32)c(OC)c1` yielded a melting point of 112 °C.
`Oc1ccc2c(c1)CCNC21CCSCC1` showed a melting point of 211 to 213 °C.
`O=[N+]([O-])c1c(Br)cccc1CS(=O)(=O)c1ccccc1` showed a melting point of 138 to 141 °C.
Compound `CCCCCCCCCCCC(=O)OCc1ccccc1-c1nc(-c2cccc(OC)c2)n[nH]1` has a melting point of 45 °C.
`CCCc1c(C(=O)NCc2ccc3cc(OCC(=O)O)ccc3c2)cnn1-c1ccccc1` showed a melting point of 175 to 177 °C.
`Cc1cccc(Cl)c1-n1[nH]c(C(C)C)c2c(=O)nc(Cc3ccc(N)cc3)nc1-2` showed a melting point of 206 to 207 °C.
`CN(C)c1ccc2sccc2c1` showed a melting point of 52 to 54 °C.
Compound `COc1ccc2c(c1)C(C)N(C)C(=O)C2c1cc(OC)c(OC)c(OC)c1` (stereo unspecified) has a melting point of 135 to 140 °C.
For `OC(c1ccccc1)(c1ccccn1)C1CCN(Cc2ccccc2)CC1` (stereo unspecified), the melting point was 142 to 143 °C.
Work on `CCC1SC(c2ccncc2)=C(C)NC1=O` (stereo unspecified) yielded a melting point of 121 to 123 °C.
With `CC(C)(Cc1ccc(Cl)cc1)C(=O)Cn1cncn1` the melting point was 127 °C.
`Nc1cc([N+](=O)[O-])ccc1OCC(O)CN1C(=O)CCC1=O` (stereo unspecified) showed a melting point of 200 °C.
With `c1ccc(OCC2CN(Cc3nc4ccccc4[nH]3)CCO2)cc1` (racemic) the melting point was 171 to 172 °C.
Compound `COc1ccccc1NC(=O)Nc1cccc(-n2c(=O)c(CCC(=O)N(C)C)nc3cccnc32)c1` has a melting point of 242 to 245 °C.
For `O=C(O)[C@H](O)C1CCCCC1`, the melting point was 124 to 126 °C.
`COc1ccc(COCc2nc(C(C)C)c(Sc3cc(Cl)cc(Cl)c3)n2C)cc1` showed a melting point of 79 to 80 °C.
Work on `Cc1c(O)c(=O)ccn1CCCO` yielded a melting point of 111 to 113 °C.
`O=C(CCCN1CCNC1=O)N1CCC(C2c3ncc(Br)cc3CCc3cc(Cl)cc(Br)c32)CC1` (single isomer, unassigned; (+)) gave a melting point of 120 to 123 °C.
For `COC12CC(C)(C)C(O1)C(OC(=O)c1ccc(N)cc1)C=C2C` (stereo unspecified), the melting point was 118 to 119 °C.
For `COc1cc2nc(C(C)(C)C)sc2cc1NC(=S)N1CCN(CCO)CC1`, the melting point was 161 to 162 °C.
Compound `O=C(O)Cc1nn(Cc2ccc(Br)cc2F)c(=O)c2c(F)cccc12` has a melting point of 173 to 175 °C.
In the case of `NC(=O)c1ccc(CCCOCCCCCCNCC(O)c2cc(Cl)c(N)c(Cl)c2)cc1` (stereo unspecified), the melting point is reported as 91 to 94 °C.
With `COc1cc(Cl)c2c(c1)NC(=O)C(C)(c1ccc(Br)cc1)C2=O` (stereo unspecified) the melting point was 239 to 240 °C.
Compound `CCCCCCCOc1ccc(CCC(CO)(CCC)NC(=O)c2cc([N+](=O)[O-])cc([N+](=O)[O-])c2)cc1` (single isomer, unassigned; (-)) has a melting point of 115 to 116 °C.
Compound `COc1ccc2c(=O)cc(SC)sc2c1` has a melting point of 133 to 135 °C.
For `CC(=O)N[C@H]1CC[C@H](ON2C(=O)c3ccccc3C2=O)CC1`, the melting point was 210 to 213 °C.
`COc1cc2ncnc(N3CCc4cccc(C)c43)c2cc1OC` gave a melting point of 146 to 147 °C.
Work on `O=c1ccoc2c(C/C=C/c3ccccc3)c(OCc3ccccc3)ccc12` yielded a melting point of 131 to 133 °C.
For `CCC(=O)N1N=C(c2ccc([N+](=O)[O-])c(C)c2)c2cc(Cl)ccc2C=C1C`, the melting point was 134 to 138 °C.
Work on `CC1CC(c2c(S(C)(=O)=O)ccc(C(=O)c3cnn(C)c3O)c2Cl)=NO1` (stereo unspecified) yielded a melting point of 230 to 235 °C.
For `O=c1cc(Cl)sn1-c1ccc(Cl)cc1`, the melting point was 117 to 119 °C.
`CC(=CC(=O)OCCCCCCCCC(=O)O)CC1OCC(CC2OC2C(C)C(C)O)C(O)C1O` (stereo unspecified) gave a melting point of 73 to 75 °C.
For `CCOCc1nc2c(N)nc3cc(OCc4ccccc4)ccc3c2n1CC(C)(C)O`, the melting point was 215 to 216 °C.
For `CCCCCCCOc1cc2c(cc1C=Cc1ccc(C(=O)O)cc1)C(C)(C)CCC2(C)C`, the melting point was 153 to 155 °C.
`CCCc1nc(O)c(-c2ccc(C)cc2)c(O)n1` gave a melting point of over 300 °C.
For `O=C(CO)c1ccc2ccccc2c1`, the melting point was 114 to 115 °C.
In the case of `O=C(COc1ccccc1)NC1C(=O)N2C(C(=O)OCc3ccc([N+](=O)[O-])cc3)=C(O)CCC12` (stereo unspecified), the melting point is reported as 160 to 162 °C.
For `CCCCOc1ccc2c(c1)CCC(C(=O)OC)C2O` (stereo unspecified), the melting point was 81 to 83 °C.
For `NS(=O)(=O)c1ccc(NN=Cc2ccc(F)cc2)cc1`, the melting point was 205 to 206 °C.
Compound `CCOC(=O)c1ccc(OCC(O)COc2cccc3oc(C(=O)OCC)cc(=O)c23)cc1` (stereo unspecified) has a melting point of 134 to 135 °C.
With `O=c1oc2ccccc2c2c1CN(CCN1CC3CCCC(C3)C1)CC2` the melting point was 129 to 130 °C.
Work on `C=C(c1cncn1Cc1ccccc1)C(c1cc(C)cc(C)c1)c1cc(C)cc(C)c1` yielded a melting point of 170 to 176 °C.
In the case of `OCCn1cnc2c(Cl)nc3ccccc3c21`, the melting point is reported as 185 to 187 °C.
`CC(=O)C1C(=O)N(C(=O)Nc2ccc(F)cc2)c2ccccc21` (stereo unspecified) showed a melting point of 181 to 182 °C.
With `CC(COc1ccc(CC2SC(=O)NC2=O)cc1)NCC(O)CN(C)c1ccccc1` (stereo unspecified) the melting point was 115 to 125 °C.
For `COc1cc(C(=O)c2csc(-c3ccc(N)cc3)n2)cc(OC)c1OC`, the melting point was 166 to 169 °C.
For `O=C1c2cccc(Br)c2C(=O)N1CCCn1cncn1`, the melting point was 113 to 115 °C.
In the case of `CCCCCCCCC(SCCCCCC)C(=O)Nc1c(SC)nc(C)nc1SC` (stereo unspecified), the melting point is reported as 95 to 97.5 °C.
With `CC(=O)OCC(=O)C1(OC(=O)CC(C)C)CCC2C3CC(C)C4=CC(=O)C=CC4(C)C3C(O)CC21C` (stereo unspecified) the melting point was 172 °C.
Compound `Cc1c(F)c(F)c(C(=O)NC2CCCCCC2)c(F)c1F` has a melting point of 164 to 165 °C.
Work on `COC(=O)c1cnnn1C1OC(COC(=O)c2ccccc2)C(OC(=O)c2ccccc2)C1OC(=O)c1ccccc1` (stereo unspecified) yielded a melting point of 86 to 88 °C.
Compound `OCc1cc2cccc(Nc3cc(-c4ccc(C(F)(F)F)cc4)ncn3)c2[nH]1` has a melting point of 221 to 223 °C.
Compound `CC1(O)CC(=O)OC(C=Cc2ccccc2)C1(C)Br` (stereo unspecified) has a melting point of 121 to 123 °C.
`NS(=O)(=O)c1ccc(-c2noc(-c3cnc4c(C(F)(F)F)cc(-c5ccc(C(F)(F)F)cc5)cn34)n2)cc1` showed a melting point of 292 °C.
`Cc1ccc(S(=O)(=O)C=CC#N)cc1NS(=O)(=O)c1ccc2ccccc2c1` showed a melting point of 214 to 216 °C.
`COC(=O)CCC(N=O)C(C)(C)Cl` (stereo unspecified) showed a melting point of 90 to 91 °C.
`CC(C)(O)CNC(=O)c1ccc(-c2ccc(C(CC3CCOCC3)c3ccc(S(=O)(=O)C4CC4)cc3)[nH]2)nc1` (stereo unspecified) showed a melting point of 126 to 128 °C.
`CC(C)(C)[NH+]([O-])C(=O)Nc1ccnc(-c2ccncc2)n1` (stereo unspecified) gave a melting point of 125 to 150 °C.
Compound `COC(=O)[C@H]1CN(c2cc(F)c(N3CCSCC3)c(F)c2)C(=O)O1` has a melting point of 99 to 101 °C.
`Nc1c([N+](=O)[O-])cc(F)c(Cl)c1Br` showed a melting point of 146 to 147 °C.
For `CN1CCN(CCCNc2ncc3cc(-c4c(Cl)cccc4Cl)c(N)nc3n2)CC1`, the melting point was 208 to 211 °C.
For `Cc1cccc(C)c1C(=O)NCC(=O)N1c2ccccc2N(Cc2ccccc2)C(=O)[C@H]2CCC[C@H]21` (relative stereo), the melting point was 208 to 209 °C.
`Cc1ccc(Cl)c(C(=O)c2ccc(Cl)cc2)c1` showed a melting point of 85 to 90 °C.
Compound `NC(=O)c1cnc2n(c1=O)CCC2` has a melting point of 293 °C.
Compound `CC(=O)c1ccc2c(c1)CC(=O)N2CC(F)(F)F` has a melting point of 170 to 171 °C.
Compound `c1ccc2c(Cn3ccnc3)noc2c1` has a melting point of 52 to 55 °C.
Work on `CCCCc1ccc(OC)c(-c2csc(NC(=O)c3ccc(C(=O)N4CCC(N5CCC(NC(=O)CC)C5)CC4)cc3)n2)c1` (stereo unspecified) yielded a melting point of 128 °C.
`C=C(c1ccc(N(C)C)cc1)c1ccc(N(C)C)cc1` showed a melting point of 115 °C.
In the case of `COC(=O)CC(=O)Nc1ccc(C2=NNC(=O)CC2C)cc1` (stereo unspecified), the melting point is reported as 228 to 230 °C.
